# Results from patent US20230293640A1, “COMPOUNDS FOR THE TREATMENT OF ENDOTHELIITIS IN CONTEXT OF VIRALLY CAUSED DISEASES” (F4 PHARMA GMBH, priority 2020, published 2023).
# Where a SMILES comes first, the peptide text is derived from it.
# Key:
# [1] = test system: COVID-19-associated severe ARDS; details: data of the 3 patients of example 2
# Excerpt: Example 2: Critically ill patients suffering from a COVID-19 infection in a second university care centre.
# To this date, we treated three patients in individualized therapeutic attempts with FX06 in the second university care center.
# All three patients were diagnosed with SARS-CoV-2 pneumonia resulting in severe acute respiratory distress syndrome (ARDS) and required extracorporeal membrane oxygenation (ECMO) therapy upon or early during their treatment in our facility. All patients were referred to our hospital from basic care providers due to the severity of their conditions. All patients required ECMO therapy at the time of FX06 treatment.
# FX06 400 mg was administered once per day after informed consent by the close relative.
# [2] = human, in vivo; cited from earlier work
compound,measurement,setting,value
CC[C@H](C)[C@H](NC(=O)[C@@H]1CCCN1C(=O)[C@@H]1CCCN1C(=O)[C@@H]1CCCN1C(=O)[C@H](C)NC(=O)[C@@H]1CCCN1C(=O)[C@H](CCCNC(=N)N)NC(=O)[C@H](CC(C)C)NC(=O)[C@H](CO)NC(=O)[C@@H]1CCCN1C(=O)[C@H](C)NC(=O)[C@H](CCC(=O)O)NC(=O)[C@H](CCC(=O)O)NC(=O)[C@H](CCCNC(=N)N)NC(=O)[C@H](CCCCN)NC(=O)[C@H](CCCCN)NC(=O)[C@H](CC(=O)O)NC(=O)[C@H](CC(C)C)NC(=O)[C@@H]1CCCN1C(=O)[C@H](CCCNC(=N)N)NC(=O)[C@H](Cc1c[nH]cn1)NC(=O)CN)C(=O)N[C@@H](CO)C(=O)NCC(=O)NCC(=O)NCC(=O)N[C@@H](Cc1ccc(O)cc1)C(=O)N[C@@H](CCCNC(=N)N)C(=O)O [FX06] (H-GHRPLDKKREEAPSLRPAPPPISGGGYR-OH),safety in severe ARDS,[1],safe to use
same,tolerability / safety profile in clinical trials,[2],well tolerated with a benign safety profile
